The text below walks through data of US12139488B2, “Pyrido[3,2-d]pyrimidine compounds uses thereof for treating a proliferative disease” (Universite de Montreal, priority 2021, dated 2024).

One data set has as its target BRAF (Homo sapiens (Human), UniProt P15056). The experiment in a line: BRAF kinase activity assay (ADP-Glo). The class given is biochemical. The conditions noted are these: read-out: Kinase IC50 (nM) BRAF. The essentials:
(§1)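 ADP-Glo luminescence assay of BRAF and CRAF kinase reactions with MEK1 substrate and ATP. Reactions ran 2 h at 30 °C with compound over nine concentrations from 100 nM to 0.01 nM, at 0.05% DMSO final. IC50 came from four-parameter variable-slope fits of % inhibition.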
(In ADP-Glo the light output rises with the ADP produced.)

Data set [1] can be described thus: Body weight during TGI experiments. The class given is in vivo, NU(NCr)-Foxn1nu female mice. The conditions noted are these: repeated oral treatment (QD or BID), Example 99 sodium salt suspension. Here is the method: NU(NCr)-Foxn1nu mice were inoculated subcutaneously at the right flank with 1×10^6 (HCT-116 or A375) or 3×10^6 (A101D, A2058, RKO, HT29 SK-MEL 30, Calu-6, HepG2, Lovo, NCI-H2122, NCIH1666 and NCIH1755) tumour cells in 0.2 mL of the 50:50 PBS:Matrigel mixture for tumour development. Tumour measurements were taken with an electronic microcalliper three times weekly. In addition, body weights were recorded at these times. Tumor volume was calculated, taking length to be the longest diameter across the tumor and width to be the corresponding perpendicular diameter using the following formula: ((length×width×[…])/2).
For tumor growth inhibition (TGI) experiments, the treatment was performed when mean tumour size reached approximately 200 mm^3, with at least 7 mice for each time point randomized to balance the average tumour size for each treatment group. Mice were administered orally (QD or BID) with a suspension of Example 99 sodium salt in a formulation consisting of 1% NMP, 0.3% Tween-80, pH 9.1. Example 99: Na+ powder was directly resuspended in the complete blank formulation. Dosing volume was 10 mL/kg, yielding the indicated doses (doses are in mg per kg or mpk). Tumours were measured with an electronic microcalliper three times weekly. In addition, body weights were recorded at these times. Tumor volume was calculated as described above. […]

The target in the next data set is CRAF (Homo sapiens, UniProt P04049). Nature of the data set: CRAF kinase activity assay (ADP-Glo). The class given is biochemical. The following applies: read-out: Kinase IC50 (nM) CRAF. The essentials:
as §1

The subject of data set [2] is pERK and pMEK in RAS-mutant HCT-116 cells. Nature of the data set: Immunoblot analysis of pERK and pMEK in HCT-116 cells. The class given is cell-based, human. The conditions noted are these: 1 h treatment, FIG. 2. As for the experimental part: For immunoblotting analysis, 500,000 HCT-116 cells were plated in 1 mL of complete RPMI-1640 growth medium in 24-well flat-bottomed transparent dishes (Costar). Cells were maintained overnight at 37° C. under 5% CO2 before treatment with compounds' dilution series for one hour.
Cells were then washed once in PBS and lized in 250 μL of Igepal Lysis Buffer (50 mM Tris-HCl pH 7.5, 150 mM NaCl, 1% Igepal-CA630, 1 mM EDTA, 10% Glycerol) supplemented with Leupeptin, Aprotinin, PMSF, phosphatase inhibitor cocktail (Sigma) and Na3VO4 at 4° C. for 15 minutes with gentle rocking. Cell extracts were then cleared by centrifugation at 20,000 g at 4° C. for 10 minutes. Cleared lysates were then transferred on ice in fresh tubes and then boiled in sample loading buffer (100 mM Tris-HCl pH 6.8, 4% SDS, 0.2% bromophenol blue, 20% glycerol, 200 mM p-mercaptoethanol) for 5 minutes prior to fractionation by SDS-PAGE and transfer to nitrocellulose membranes (PALL). […]
In general terms: A western blot detects proteins with antibodies after separation by electrophoresis.

Sequence of BRAF (P15056 whole entry): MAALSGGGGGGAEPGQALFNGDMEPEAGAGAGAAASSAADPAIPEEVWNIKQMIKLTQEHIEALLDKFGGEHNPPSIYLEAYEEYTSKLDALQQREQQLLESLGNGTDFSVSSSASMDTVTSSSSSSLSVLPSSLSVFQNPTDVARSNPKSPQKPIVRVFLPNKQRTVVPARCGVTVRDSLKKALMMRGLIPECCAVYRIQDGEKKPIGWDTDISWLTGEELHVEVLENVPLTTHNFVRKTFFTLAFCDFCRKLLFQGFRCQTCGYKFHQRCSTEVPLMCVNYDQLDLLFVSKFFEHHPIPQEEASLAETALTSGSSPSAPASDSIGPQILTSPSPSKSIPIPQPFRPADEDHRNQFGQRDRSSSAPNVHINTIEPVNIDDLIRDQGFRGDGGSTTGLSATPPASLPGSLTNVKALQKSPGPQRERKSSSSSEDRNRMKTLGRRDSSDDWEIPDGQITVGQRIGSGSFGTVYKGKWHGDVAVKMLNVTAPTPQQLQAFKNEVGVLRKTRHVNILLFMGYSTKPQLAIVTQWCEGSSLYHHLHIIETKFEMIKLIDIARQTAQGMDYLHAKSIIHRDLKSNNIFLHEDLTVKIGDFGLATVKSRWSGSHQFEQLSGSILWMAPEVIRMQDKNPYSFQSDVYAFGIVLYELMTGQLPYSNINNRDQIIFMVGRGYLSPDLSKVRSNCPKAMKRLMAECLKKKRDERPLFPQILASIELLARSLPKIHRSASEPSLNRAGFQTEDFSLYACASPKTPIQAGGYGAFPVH
Sequence of CRAF (P04049 whole entry, looked up): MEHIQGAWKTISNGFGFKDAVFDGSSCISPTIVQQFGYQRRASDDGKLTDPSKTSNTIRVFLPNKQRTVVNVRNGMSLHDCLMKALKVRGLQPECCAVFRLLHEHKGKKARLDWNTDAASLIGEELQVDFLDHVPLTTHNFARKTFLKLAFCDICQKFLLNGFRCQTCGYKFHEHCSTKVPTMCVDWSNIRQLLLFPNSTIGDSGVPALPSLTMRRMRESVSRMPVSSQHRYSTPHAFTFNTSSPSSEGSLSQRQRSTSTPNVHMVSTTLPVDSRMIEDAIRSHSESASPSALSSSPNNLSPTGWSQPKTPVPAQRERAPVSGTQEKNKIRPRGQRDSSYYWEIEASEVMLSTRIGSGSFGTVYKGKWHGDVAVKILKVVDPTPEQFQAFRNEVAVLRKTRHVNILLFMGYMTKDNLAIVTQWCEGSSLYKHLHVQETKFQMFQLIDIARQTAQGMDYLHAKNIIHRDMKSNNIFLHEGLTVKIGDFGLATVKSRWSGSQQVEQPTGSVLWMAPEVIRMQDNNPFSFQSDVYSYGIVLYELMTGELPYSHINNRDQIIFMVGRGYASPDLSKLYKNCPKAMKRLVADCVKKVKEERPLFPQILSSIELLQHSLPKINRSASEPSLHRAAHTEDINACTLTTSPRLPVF

With `Nc1cccc2c1ncn2-c1ccc2ncnc(Nc3c(F)ccc(NS(=O)(=O)c4cccc(Cl)c4Cl)c3F)c2n1` [Example 99], the figures for the concentration for half-maximal inhibition (IC50) on BRAF and at CRAF were under 1 nM and under 10 nM, respectively. The “change in body weight compared to vehicle-treated animals” value in data set [1] was “did not result in any change in body weight”. Further, the “paradoxical induction of pERK or pMEK signaling (immunoblot)” value in data set [2] is “does not induce paradoxical induction of pERK or pMEK signaling”.
